Where a name gives a salt, the structure may show the parent alone.
Columns and labels:
human H1 receptor = biological target: T1, human H1 receptor (Homo sapiens, UniProt P35367); experiment: Histamine H1 functional antagonist assay: antagonist duration after washout; assay type: cell-based; details: at one or more time points after washout
T1 construct: expressed in transfected cells
Experimental: The human H1 receptor is cloned using known procedures described in the literature [Biochem. Biophys. Res. Commun., 201(2):894 (1994)]. Chinese hamster ovary (CHO) cells stably expressing the human H1 receptor are generated according to known procedures described in the literature [Br. J. Pharmacol., 117(6):1071 (1996)]. […] Following the 30 min antagonist incubation period, the cells are washed two or three times with 200 μl of PBS and then 100 μl Tyrodes buffer is added to each well to initiate antagonist dissociation. […] After this period, the cells are challenged with histamine in the FLIPR™ as described above. The dose ratio at each time point is used to determine the fractional H1 receptor occupancy by the following equation: fractional receptor occupancy=(DR-1)/DR. The decrease in receptor occupancy over time approximates to a straight line and is analysed by linear regression. The slope of this straight line fit is used as an index of the dissociation rate of the antagonist. The dose ratios for antagonist treated cells and for antagonist treated and washed cells at each time point are used to calculate a relative dose ratio (rel DR) which is also used as an index of antagonist duration. […]

[1] = system: histamine-induced congestion; experiment: Intranasal challenge method: whole body plethysmography; assay type: in vivo, Female Dunkin-Hartley guinea pigs; details: guinea pig, dosed intranasally at 1 mg/ml either 3 hr or 24 hr before histamine challenge
Experimental: Intranasal Challenge Method: Whole Body Plethysmography
Female Dunkin-Hartley guinea pigs 150-250 g are sensitised twice daily for 5 days (week 1) with ovalbumin (OVA) and aluminium hydroxide (Al(OH)3 or Alum) in physiological saline, 25 μl/nostril. Solution is made up at 20 μg/ml OVA, 180 mg/ml Alum.
Pretreatment with test compound is performed at various times prior to histamine challenge. Efficacy dose-response curves are determined 1 hr and/or 3 hr after dosing whereas duration of action may be studied up to 7 days post dose (for example, at 24 hours). Test compounds are formulated as solutions in 0.9% sterile saline or suspensions in 0.9% sterile saline/tween80. […]
After the stipulated pre-dose time has been reached, guinea pigs are re-anaesthetised with isoflurane and dosed with either 10 mM or 15 mM histamine or phosphate-buffered saline (PBS), (25 μl per nostril). […] Data are analysed using ANOVA with post-hoc Fishers LSD test (general linear models, Statistica®) and finally Hochberg adjustment. Inhibition of histamine-induced congestion is determined by statistically significant differences between the mean responses of compound pre-treated groups compared to the vehicle pre-treated, histamine-challenged group.

T1 sequence (P35367 whole entry): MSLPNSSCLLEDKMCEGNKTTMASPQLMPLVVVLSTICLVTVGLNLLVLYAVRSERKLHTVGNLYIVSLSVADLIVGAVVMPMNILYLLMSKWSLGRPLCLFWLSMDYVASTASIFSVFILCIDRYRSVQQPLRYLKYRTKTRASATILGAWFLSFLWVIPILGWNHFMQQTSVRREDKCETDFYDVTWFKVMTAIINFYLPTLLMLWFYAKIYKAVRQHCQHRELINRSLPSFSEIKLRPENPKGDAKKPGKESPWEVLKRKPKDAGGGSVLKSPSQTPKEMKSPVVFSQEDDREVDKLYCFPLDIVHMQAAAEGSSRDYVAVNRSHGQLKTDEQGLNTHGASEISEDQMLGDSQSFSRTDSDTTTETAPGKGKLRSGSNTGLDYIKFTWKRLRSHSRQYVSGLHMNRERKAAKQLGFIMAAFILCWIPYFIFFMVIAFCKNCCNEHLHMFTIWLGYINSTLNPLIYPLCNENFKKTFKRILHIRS

SMILES: CCCCc1cc(OC2CCN(CCCCNS(=O)(=O)CC(C)C)CC2)c2ncccc2c1 [Example 26, N-(4-{4-[(6-Butyl-8-quinolinyl)oxy]-1-piperidinyl}butyl)-2-methyl-1-propanesulfonamide, dihydrochloride salt]
- duration of action compared with azelastine in the histamine H1 functional antagonist assay (human H1 receptor): longer duration of action than azelastine

SMILES: CN1CCCC(n2nc(Cc3ccc(Cl)cc3)c3ccccc3c2=O)CC1 (centres unmarked) [azelastine]
- inhibition of the response to histamine challenge (duration of action) in the intranasal challenge model [1]: failed to show a similar duration of action
